Tested on: primary cortical neurons
Assay: Trophic factor withdrawal
Assay type: cell-based, rat
Conditions: serum-containing medium, 10-10,000 nM, 2 days
Description: FIG. 5 illustrates pharmacological effects of Baicalein on cultured cells. (A) Trophic factor withdrawal. Primary cortical neurons are prepared from 18-day-old rat embryos, and cultured at low cell density 1×10^6/35 mm dish, in serum containing medium with Baicalein (10-10,000 nM), and viability assayed 2 days later using a live-dead assay. (B) Excitotoxicity assay was done with E14 mouse primary cortical neuron cultures. After 11 days of culture, cells were exposed to 10 μM glutamate for 10 min, followed by the addition of varying concentrations of Baicalein (0.2-5 μM). Cell viability was determined 24 hr later with a standard MTT assay. (C) PC12 cells were glucose-deprived then were incubates in the absence or presence of Baicalein. Cell viability was determined 24 hr later using the MTT assay. (D) RCG-5 nerve cells were treated with 30 μM iodoacetic acid for 2 hr in the presence or absence of 5-25 μM Baicalein. In some experiments, Baicalein was added 2 hr after the ischemic event. Cell survival (%) was measured after 24 hr by the MTT assay. Baicalein added before (□) or 2 hr after ([…]) ischemia. […] These include trophic factor withdrawal (TFW), excitotoxicity, glucose starvation, and most importantly, in a chemical ischemia model. […] (FIG. 5A). Using a published excitotoxicity assay, Baicalein rescues about 35% of the cells (FIG. 5B).

Q: With `O=c1cc(-c2ccccc2)oc2cc(O)c(O)c(O)c12` [Baicalein, 5,6,7-trihydroxyflavone, reference compound] as the compound, how does the “survival of low-density cultured cortical neurons” value read?
A: dramatically promotes the survival
